Test results as given in the NIST ThermoML archive (doi:10.1021/je9003383).
± gives the expanded uncertainty stated by the source.

Test: mn = molality of the nth substance listed, in mol/kg
Conditions: 293.15 K, 101 kPa, Liquid, Vibrating tube method

| SMILES | mass density (m1 = 1.867) [kg/m3] | mass density (m1 = 4.118) [kg/m3] | mass density (m1 = 6.189) [kg/m3] | mass density (m1 = 8.119) [kg/m3] | mass density (m1 = 10.03) [kg/m3] | mass density (m1 = 12.1) [kg/m3] | mass density (m1 = 0.2628) [kg/m3] | mass density (m1 = 0.4689) [kg/m3] | mass density (m1 = 0.7153) [kg/m3] | mass density (m1 = 0.9675) [kg/m3] | mass density (m1 = 1.268) [kg/m3] | mass density (m1 = 1.448) [kg/m3] |
| --- | --- | --- | --- | --- | --- | --- | --- | --- | --- | --- | --- | --- |
| CN(CCO)CCO [N-methyldiethanolamine] + O | 1014.8 ± 1 | 1029.6 ± 1 | 1038.8 ± 1 | 1044.8 ± 1 | 1048.6 ± 1.1 | 1051.6 ± 1.1 | – | – | – | – | – | – |
| C1CNCCN1 [piperazine] + O | – | – | – | – | – | – | 999.1 ± 1 | 999.8 ± 1 | 1000.8 ± 1 | 1001.8 ± 1 | 1003.1 ± 1 | 1004 ± 1 |
